Patent publication US10662194B2, “Substituted 6-anilino-9-heterocyclylpurine derivatives for inhibition of plant stress” (UNIVERZITA PALACKEHO V OLOMOUCI, priority 2014, dated 2020)
Converted amounts (≈) assume the structure as drawn.

What was measured:
maize (hybrid Amadeo) = experiment: Seed coating, shoot and root growth of maize (pot experiment); type: in vivo
Protocol: The drenching experiments with model plant Arabidopsis pointed to potential application of compound 12 in stimulation of plant growth and development when the roots of the plants are exposed to the chemical. […] In the year 2011 pot experiment was performed with maize (hybrid Amadeo; KWS, FAO 230). The seeds were coated with 10 and 50 μM concentration of compound 12 mixed into seed treatment agent Cruiser OSR (Syngenta; 8 L of solution per 1000 kg of seeds). Seeds coated with only Cruiser OSR were used for control variant. The seeds were dried and then sown into the soil, one plant per 15 L pot (30 plants were used per variant). The plants were harvested after app. one month in stage DC 18 (eight leafs per plant). The shoots and the roots of each plant were separated and dried. The weight of dry shoot and root biomass was recorded. […] The plants, which seeds were coated with the lower concentration of compound 12, formed 2-times higher root dry biomass and 2.75-times higher shoot dry biomass. In total this was reflected by 2.3-times increase of the total plant dry weight.

[1] = Calcein AM viability/cytotoxicity assay, BJ; type: cell-based; conditions: human, BJ foreskin fibroblasts, FIG. 11, read-out: IC50, concentration reducing number of viable cells to 50%
Source text: (§1) Absence of toxic effects against mammalian (especially human) cell lines in a wide concentration range is one of the requirements on compounds intended for use in agriculture and medicine. Because toxic compounds negatively influence metabolic processes in cells, many standard cytotoxicity assays are based on measurement of metabolisation rate of various artificial substrates. Resulting product is then quantified e.g. by means of spectrometry. The assays can be easily modified for use in 96-well plates. For evaluation of cytotoxic effect of compounds of this invention, a microtiter assay based on quantification of metabolisation of Calcein AM was used. The assay is widely used in drug screening programs and in chemosensitivity testing. In live cells, Calcein AM is enzymatically hydrolysed and accumulation of resulting calcein is manifested by green fluorescence. The cytotoxicity of the studied compounds was determined with human fibroblast lines MRC-5 (lung fibroblasts) and BJ (foreskin fibroblasts). […] The fluorescence of the live cells was measured at 485 nm/538 nm (excitation/emission) with a Fluoroskan Ascent microplate reader (Labsystems). […]

[2] = Compound solubility limit in the test medium; type: physicochemical; conditions: read-out: highest concentration accessible due to the compound solubility
Source text: (§2) Maintenance of genome integrity is essential for homeostasis and survival as impaired DNA damage response may predispose to grave pathologies such as neurodegenerative and immunodeficiency syndromes, cancer and premature aging (Mistrik et al., 2009). The potential effect of compound 12 on stimulation of DNA breakage was thus further estimated through analysis of phosphorylated histone H2AX (gamma-H2AX) quantified by optimized automated single-cell image analysis (Mistrik et al., 2009). The compound 12 was tested in concentration of 100 μM, the highest concentration accessible due to the compound solubility. Induction of DNA breakage was tested using human U2OS cells. The U2OS cells were cultivated at standard cultivation condition (37° C., 5% CO2). As a positive control, cells were irradiated by roentgen radiation (Baltobloc) (0.5 Gy-2 Gy), one hour later fixed and stained for γ-H2AX, a well established marker of the DNA damage. Parallel samples were treated by compound 12 for 24 hours, fixed and also stained for γ-H2AX. Microscopy analysis followed by computer based signal quantification was performed as described previously (Mistrik et al., 2009).

[3] = Calcein AM viability/cytotoxicity assay, MRC-5; type: cell-based; conditions: human, MRC-5 lung fibroblasts; MRC-5, 72 h, FIG. 11; read-out: IC50, concentration reducing number of viable cells to 50%
Source text: as §1

human U2OS cells = experiment: Induction of DNA breakage, γ-H2AX immunofluorescence; type: cell-based; conditions: 100 μM, 24 h, FIG. 13
Source text: as §2

[4] = seed coating, lower concentration (10 μM), stage DC 18

## COc1cccc(Nc2nc(Cl)nc3c2ncn3C2CCCCO2)c1 (centres unmarked) [compound 12, 2-chloro-6-(3-methoxyanilino)-9-(tetrahydropyran-2-yl)purine]
Maize (hybrid Amadeo); seed coating 10 and 50 μM, FIG. 10
  effect on shoot and root dry biomass: dose-dependent stimulatory effect
Maize (hybrid Amadeo); [4]
  increase of the total plant dry weight: 2.3 times
  root dry biomass, times higher than control: 2 times
  shoot dry biomass, times higher than control: 2.75 times
[1]
  IC50 at 72 h: > 100 µM
[2]
  solubility: 100 µM (≈ 36 µg/mL)
[3]
  IC50 at 72 h: > 100 µM
Human U2OS cells
  DNA damage (γ-H2AX): no effect on DNA damage
